# Assay results: US20080058300A1, “Induction of weight loss and the selective inhibition of PTP1B” (priority 2006, published 2008)
# Tests used:
# [1] = target: T1, TCPTP (Homo sapiens, UniProt P17706); assay: TCPTP enzyme inhibition assay (DiFMUP substrate, spectrofluorimetric); assay type: biochemical
# T1 construct: MDS Pharma (contract assay); host or cells: E. coli
# T1 sequence (P17706 1-415): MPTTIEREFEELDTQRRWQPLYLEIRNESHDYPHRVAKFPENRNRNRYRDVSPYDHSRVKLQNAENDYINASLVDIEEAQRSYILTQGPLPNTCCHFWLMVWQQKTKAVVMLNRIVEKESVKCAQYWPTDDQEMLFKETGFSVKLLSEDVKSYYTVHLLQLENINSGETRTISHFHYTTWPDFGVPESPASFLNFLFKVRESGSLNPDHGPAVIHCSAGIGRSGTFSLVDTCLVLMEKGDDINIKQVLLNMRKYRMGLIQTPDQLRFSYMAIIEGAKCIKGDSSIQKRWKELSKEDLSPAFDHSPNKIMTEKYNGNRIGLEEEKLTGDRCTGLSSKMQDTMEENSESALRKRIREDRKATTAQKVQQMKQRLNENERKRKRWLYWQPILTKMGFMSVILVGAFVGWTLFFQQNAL
# Method: In the PTP1B assay, phosphatase activity was quantitated through ELISA analysis of remaining tyrosine phosphopeptide after 30-minute incubations at room temperature with various concentrations of 1436 (0.05 μM to […]). […] The TCPTP assay required a 15-minute preincubation of enzyme and substrate at 37° C. followed by 60-minute incubations at 37° C. with various concentrations of 1436 (0.5 μM to 50 μM). TCPTP activity was assessed by spectrofluorimetric quantitation of DiFMU.
# [2] = target: T2, Dopamine Transporter (DAT) (Homo sapiens, UniProt Q01959); assay: Radioligand binding assay, [125I] RTI-55, Dopamine Transporter; settings: human recombinant, CHO-K1 cell membranes; [125I] RTI-55 0.15 nM; 3 hours at 4° C.; read-out: ˜IC50, inhibition of binding to DAT
# T2 construct: expressed in transfected cells; host or cells: CHO-K1 cells (membrane preparations)
# T2 sequence (Q01959 whole entry): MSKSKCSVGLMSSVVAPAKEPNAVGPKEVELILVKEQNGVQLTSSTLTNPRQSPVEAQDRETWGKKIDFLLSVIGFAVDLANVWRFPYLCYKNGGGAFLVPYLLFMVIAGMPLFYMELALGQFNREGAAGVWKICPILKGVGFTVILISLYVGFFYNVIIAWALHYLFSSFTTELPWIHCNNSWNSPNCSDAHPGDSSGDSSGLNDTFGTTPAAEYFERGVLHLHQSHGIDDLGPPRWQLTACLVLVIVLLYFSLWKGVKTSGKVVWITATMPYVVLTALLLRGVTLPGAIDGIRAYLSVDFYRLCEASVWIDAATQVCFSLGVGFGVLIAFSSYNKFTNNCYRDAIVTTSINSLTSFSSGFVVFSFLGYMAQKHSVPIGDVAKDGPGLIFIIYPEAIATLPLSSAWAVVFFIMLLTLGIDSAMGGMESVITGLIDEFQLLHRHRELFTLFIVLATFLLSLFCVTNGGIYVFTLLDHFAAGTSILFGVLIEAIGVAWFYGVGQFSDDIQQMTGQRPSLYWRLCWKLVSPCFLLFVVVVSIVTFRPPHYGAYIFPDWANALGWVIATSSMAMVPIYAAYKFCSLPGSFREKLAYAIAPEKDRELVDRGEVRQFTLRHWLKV
# Method: (§1) Inhibition of binding to the Dopamine Transporter (DAT) and Norepinephrine Transporter (NET) by MSI-1436 was determined in radioligand binding assays using human recombinant proteins expressed in CHO-K1 or MDCK cells, respectively. Membrane preparations were incubated with [^125I] RTI-55 (0.15 nM for DAT, 0.20 nM for NET) in the presence of 1436 (0.005 μM to 50 μM) for 3 hours at 4° C. IC50 values were determined as in PTP1B assays (See Table 2).
# [3] = target: T3, Norepinephrine Transporter (NET) (Homo sapiens, UniProt P23975); assay: Radioligand binding assay, [125I] RTI-55, Norepinephrine Transporter; settings: human recombinant, MDCK cell membranes; [125I] RTI-55 0.20 nM; 3 hours at 4° C.; read-out: ˜IC50, inhibition of binding to NET
# T3 construct: expressed in transfected cells; host or cells: MDCK cells (membrane preparations)
# T3 sequence (P23975 whole entry): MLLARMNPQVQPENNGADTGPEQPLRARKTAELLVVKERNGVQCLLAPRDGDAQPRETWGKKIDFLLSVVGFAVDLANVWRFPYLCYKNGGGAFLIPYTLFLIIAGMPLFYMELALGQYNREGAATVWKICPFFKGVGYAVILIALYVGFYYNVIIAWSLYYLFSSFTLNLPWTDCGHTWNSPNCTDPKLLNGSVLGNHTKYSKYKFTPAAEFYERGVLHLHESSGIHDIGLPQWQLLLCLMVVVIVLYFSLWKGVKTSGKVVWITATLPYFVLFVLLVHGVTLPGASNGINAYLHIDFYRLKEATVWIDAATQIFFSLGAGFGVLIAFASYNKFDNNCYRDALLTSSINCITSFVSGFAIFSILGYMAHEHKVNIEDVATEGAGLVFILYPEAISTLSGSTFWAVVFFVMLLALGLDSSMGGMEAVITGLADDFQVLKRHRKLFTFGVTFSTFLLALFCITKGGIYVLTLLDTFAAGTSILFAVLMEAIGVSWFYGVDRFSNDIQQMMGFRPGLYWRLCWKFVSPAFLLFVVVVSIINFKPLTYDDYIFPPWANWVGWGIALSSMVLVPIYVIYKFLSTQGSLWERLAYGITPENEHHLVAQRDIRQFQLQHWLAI
# Method: as §1
# [4] = target: T4, CHO-K1 cells expressing dopamine transporters (Homo sapiens, UniProt Q01959); assay: Cellular uptake of [3H] Dopamine; assay type: cell-based
# T4 construct: expressed in transfected cells; host or cells: CHO-K1 cells
# T4 sequence (Q01959 whole entry): as the sequence (Q01959 whole entry) above
# Method: (§2) After 10-minute incubations of the cells with radioactive ligands in the presence of compound at room temperature, quantitation of [^3H] Dopamine or [^3H] […] Significance criteria for antagonism was met if there was ≧50% inhibition of uptake as compared to the induced response of nomifensine (DAT) or desipramine (NET).
# [5] = target: T5, MDCK cells expressing norepinephrine transporters (Homo sapiens, UniProt P23975); assay: Cellular uptake of [3H] Norepinephrine; assay type: cell-based
# T5 construct: expressed in transfected cells; host or cells: MDCK cells
# T5 sequence (P23975 whole entry): as the sequence (P23975 whole entry) above
# Method: as §2
# [6] = tested on: male AKR/J mice on 10%, 45% or 60% fat kcal diet; assay: Induction of weight loss in diet induced obese mice; assay type: in vivo
# From the text: (§3) Mice and Study Design. At weaning, male AKR/J mice from Jackson Laboratories (Bar Harbor, Me., USA) were placed on a 10%, 45%, or 60% fat kcal diet (Research Diets, Inc., New Brunswick, N.J., USA). Mice were weighed weekly and treatment began after 13-14 weeks of access to the different fat diets. Immediately before the start of treatment, mice from all three diets were randomly subdivided further into three groups within the same fat composition diet with an even weight distribution. All mice were dosed (i.p. route) on a q7dx4 schedule, where the first dose of 1436 was 10 mg/kg and all remaining doses were 5 mg/kg. Saline-treated animals were administered 10 mL/kg. Pair-fed animals were dosed with saline (10 mL/kg) on the same q7dx4 schedule on a 1-day stagger from the other groups. As a measure of food consumption, remaining food was weighed daily. Pair-fed groups were allotted the exact amount of food consumed by 1436-treated groups in the 24 hours prior. All procedures involving mice were performed in accordance with protocols approved by the Institutional Animal Care and Use Committee.
# [7] = tested on: male AKR/J mice on 10%, 45% or 60% fat kcal diet; assay: Body composition of diet induced obese mice at end of study; assay type: in vivo; settings: i.p. q7dx4, 10 then 5 mg/kg
# From the text: as §3, with “Pair-fed groups were allotted the exact amount of food consumed by 1436-treated groups in the 24 hours prior. All procedures involving mice were performed in accordance with protocols approved by the Institutional Animal Care and Use Committee.” left out
# Body Composition. Body composition (percent moisture, fat, protein and ash) was determined according to methods described with modifications (Official Methods of Analysis of AOAC INTERNATIONAL, 2000). […] Protein was determined through the combustion method for nitrogen detection and a factor of 6.25 was used to convert percent nitrogen to percent protein. To determine ash, samples were ignited at 550° C. for 5 hours and quantified gravimetrically.
# [8] = tested on: male AKR/J mice on 60% fat diet; assay: Histology of adipose tissue in mice on 60% fat diet; assay type: in vivo; settings: mouse on 60% fat diet; i.p. q7dx4, 10 then 5 mg/kg
# From the text: as §3
# Histology. Intrascapular brown adipose tissue was fixed in 10% zinc formalin (Fisher Scientific, Kalamazoo, Mich., USA) for 48 hours and transferred to 70% EtOH. Tissues were embedded in paraffin and […] sections were applied to glass microscope slides. […]
# [9] = tested on: HepG2 cells; assay: Insulin receptor-beta phosphorylation in HepG2 cells (immunoprecipitation, Western blot); assay type: cell-based
# Method: HepG2 cells (immortalized hepatocyte cells) were treated with 10 nM insulin, […], neither, or both for either 30 minutes or 3 hours in vitro. […] No difference in the amounts of insulin receptor-beta (IR-beta) was noted (Panel A). […] This effect was slightly diminished at 3 hours.
# [10] = tested on: ob/ob mice; assay: Ex vivo liver IRS-1 phosphorylation in ob/ob mice (effect on PTP1B); settings: single dose 10 mg/kg i.p., 24 hours after treatment, livers harvested 2 min after portal vein insulin
# Method: To examine the effect of MSI-1436 on PTP1B ex vivo, ob/ob mice were treated with either vehicle, MSI-1436 (single dose, 10 mg/kg, i.p.) or pair-fed control mice (n=4 per group). Twenty-four hours after the single treatment, mice were anesthetized and portal vein was exposed via an incision. Insulin or phosphate buffered saline (PBS) was injected into the portal vein and livers were harvested 2 min after the injection. Livers were lysed and lysates were immunoprecipitated with anti-insulin receptor substrate-1 (IRS-1) and then blotted for phosphotyrosine with the resultant blots representing phosphorylated insulin receptor substrate-1 (P-IRS-1). The blots were analyzed using imaging software.
compound,measurement,setting,value
CC(C)[C@@H](CC[C@@H](C)[C@H]1CC[C@H]2[C@@H]3[C@H](O)C[C@H]4C[C@@H](NCCCNCCCCNCCCN)CC[C@]4(C)[C@H]3CC[C@]12C)OS(=O)(=O)O [compound 1436],inhibition of TCPTP at the concentrations tested,[1]; 1436 0.5 μM to 50 μM,no inhibition
same,IC50,"[1]; human recombinant protein expressed in E. Coli, DiFMUP 10 μM, 60-minute incubation at 37° C., estimated",> 50 µM
same,IC50,[2],1.74 µM
same,IC50,[3],3.24 µM
same,inhibition at 0.05 µM,"[4]; CHO-K1, 1436 0.05 μM",1%
same,inhibition at 0.25 µM,"[4]; CHO-K1, 1436 0.25 μM",39%
same,inhibition at 0.5 µM,"[4]; CHO-K1, 1436 0.5 μM",57%
same,inhibition at 2.5 µM,"[4]; CHO-K1, 1436 2.5 μM",81%
same,inhibition at 5 µM,"[4]; CHO-K1, 1436 5.0 μM",94%
same,IC50,"[4]; CHO-K1 cells, 10-minute incubation at room temperature, read-out: IC50, inhibition of Dopamine uptake",0.422 µM
same,IC50,"[5]; MDCK cells, 10-minute incubation at room temperature, read-out: IC50, inhibition of Norepinephrine uptake",0.718 µM
same,inhibition at 0.05 µM,"[5]; MDCK, 1436 0.05 μM",22%
same,inhibition at 0.25 µM,"[5]; MDCK, 1436 0.25 μM",26%
same,inhibition at 0.5 µM,"[5]; MDCK, 1436 0.5 μM",33%
same,inhibition at 2.5 µM,"[5]; MDCK, 1436 2.5 μM",78%
same,inhibition at 5 µM,"[5]; MDCK, 1436 5.0 μM",95%
same,body weight after treatment,"[6]; 10%, 45% and 60% fat diet groups, i.p. q7dx4, first dose 10 mg/kg, remaining 5 mg/kg, three weeks",lost weight
same,effect on weight loss versus pair-fed group,"[6]; i.p. q7dx4, 10 then 5 mg/kg, greatest in 60% fat group (p value 0.013)",greater than the effect of diet alone
same,% body fat (body composition at end of study),"[7]; all diets (10%, 45%, 60% fat)",lose significant % body fat
same,loss of body fat versus pair-fed groups,[7],trend for greater loss of body fat
same,"amount of fat in brown adipose tissue (BAT), histology",[8],lost all of the fat gained by the 60% diet
same,"amount of fat in white adipose tissue (WAT), histology",[8],lost all of the fat gained by the 60% diet
same,"IR-beta phosphorylation, insulin plus MSI-1436 versus insulin alone","[9]; 10 nM insulin and 10 µM MSI-1436, 30 minutes",increased IR-beta phosphorylation
same,"IR-beta phosphorylation, MSI-1436 alone","[9]; 10 µM MSI-1436 without insulin, 30 minutes or 3 hours",did not induce phosphorylation
same,insulin-induced phosphorylation of IRS-1 in liver,[10],enhanced the insulin-induced phosphorylation of IRS-1
